Results published in PMC10946451, “Engineering a Carboxyl Methyltransferase for the Formation of a Furan‐Based Bioplastic Precursor” (Chemsuschem, 2023).

Molecular target: T1, FtpM (WT FtpM) (Aspergillus fumigatus, UniProt Q4WZ45)
T1 construct: gene AFUA_3G15280; codon-optimised gene in pET-based golden gate vector, C-terminal His tag, expressed in E. coli, HisTrap purified; monomer and dimer modelled by AlphaFold 2
T1 sequence (Q4WZ45 1-282): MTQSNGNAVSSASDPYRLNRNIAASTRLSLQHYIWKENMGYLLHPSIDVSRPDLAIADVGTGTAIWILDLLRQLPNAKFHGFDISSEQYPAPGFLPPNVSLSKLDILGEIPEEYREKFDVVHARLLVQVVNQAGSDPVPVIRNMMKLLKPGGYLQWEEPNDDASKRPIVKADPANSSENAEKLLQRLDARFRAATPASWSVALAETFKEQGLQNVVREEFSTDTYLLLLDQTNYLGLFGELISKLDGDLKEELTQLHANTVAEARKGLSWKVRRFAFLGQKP
Assay: steady-state kinetics of carboxyl methylation (Michaelis-Menten; previously reported method)
Assay type: biochemical
Settings: co-substrate SAM, kinetic assay conditions not printed (reactions: 50 mM MES pH 6.0, 25 °C)

Structure (SMILES) | Km (second methylation) | Km (first methylation)
COC(=O)c1ccc(C(=O)O)o1 [compound 3, FMME] | 1400 µM | 
O=C(O)c1ccc(C(=O)O)o1 [compound 2, 2,5-furandicarboxylic acid] |  | 520 µM
